Measured values reported in article PMC9328652, “A novel class of fast‐acting antimalarial agents: Substituted 15‐membered azalides” (British Journal of Pharmacology, 2020).
In brackets after ≈: the same amount, converted by molar mass. Where two headings read alike, the source gives them in different places.

Experiments:
[1] = tested on: Plasmodium falciparum Dd2 (CQ,Q,PY,S); test: microbe, parasite or virus in culture; assay type: cell-based; conditions: for Delayed death phenotype: Dd2 and Dd2(AZ^R), 48 versus 96 h; for IC50: Plasmodium falciparum
Description: (§1) The activity of the test compounds against P. falciparum in vitro was determined using the tritiated hypoxanthine incorporation assay of Desjardins et al. and additionally modified by Milhous and Chulay (Chulay, Haynes, & Diggs, [1983]; Milhous, Weatherly, Bowdre, & Desjardins, [1985]).
(§2) Compounds were dissolved in DMSO and subsequently diluted in the culture medium (RPMI 1640) supplemented with 10% v/v human plasma. Serial 1:2 drug dilutions were prepared in triplicate in microtitre plates. Culture medium supplemented with 10% v/v human plasma and type A Rhesus positive human erythrocytes infected with P. falciparum strains was added to yield a haematocrit of 3% and a parasitaemia of 0.25–0.55%. The plates were incubated at 37°C in a modular incubator flushed with a mixture of 5% oxygen, 3% carbon dioxide, and 92% nitrogen for 48 h, and then [^3H]hypoxanthine was added to give a final concentration of 12.5–16 μCi·ml^−1. After incubation for additional 24 h, particulate matter was harvested on fibreglass strips and hypoxanthine incorporation determined by scintillation spectrophotometry. […] Delayed death experiments were performed by this standard method but extending the incubation time with the drug up to 96 h.

[2] = Pharmacokinetics in P. falciparum infected and uninfected humanized mice; conditions: for Cmax / Tmax: NODscidβ2m^−/−, mouse, whole blood, po, 12.5 mg/kg; for Cmax: C max, blood; for Cmax / Tmax / DNAUC(0–24): oral 12.5 mg·kg^−1, mean (SD); for Tmax: t max; for I/U (DNAUC infected versus uninfected): humanized mice, oral 12.5 mg·kg^−1
Description: For pharmacokinetic (PK) studies in mice, animals were dosed either by intravenous (i.v.) or oral (p.o.) route.
For studies performed in Swiss albino CD‐1 mice (Harlan Laboratories, Spain), in order to obtain simultaneous blood and plasma profiles and blood‐to‐plasma (B/P) ratio, PK was performed using terminal sampling of N = 3 animals per time point and data evaluated using composite analysis. For studies performed in P. falciparum infected and non‐infected NODscidβ2m^−/− mice (Charles River Laboratories, France), only whole blood was obtained by serial sampling of N = 3 animals using tail puncture.
For analysis of whole blood samples, 25 μl of fresh blood were mixed with 25 μl of saponin solution (0.1% in water) and immediately frozen on dry ice. Plasma was obtained by centrifugation of fresh blood at 2,500 g for 10 min. Both blood and plasma samples were stored frozen at −80°C until analysis.
Diluted blood and plasma samples were processed under standard liquid–liquid extraction procedures using acetonitrile containing internal standard (clarithromycin, 100 ng·ml^−1) and analysed by LC–MS/MS in positive ion mode with electrospray. Samples were assayed for parent compound using a Sciex API 4000 and Sciex API‐2000 Triple Quadrupole Mass Spectrometer (Sciex, Division of MDS Inc., Toronto, Canada), against a series of matrix matched calibration curve standards, using multiple reaction monitoring (MRM) at the specific transitions for each compound. Non‐compartmental analysis was performed using WinNonlin, version 4.1 (Pharsight, Mountain View, CA), and the main pharmacokinetic parameters were estimated.

[3] = tested on: haem polymerization; test: Cell-free haem polymerization assay; assay type: biochemical; conditions: cell‐free, N = 2
Description: Experiments were performed according to Tripathi, Khan, Walker, and […] ([2004]). Briefly, a solution of sodium acetate containing mono-oleoyl glycol and the corresponding inhibitor at different concentrations is placed in 1.5-ml reaction tubes. […] Multiple washing steps with Tris/SDS and bicarbonate, to remove monomeric haem and haem aggregates, allow quantification of de novo formed β-haematin.

[4] = tested on: S. pneumoniae SP030; test: Antibacterial screen, broth microdilution; assay type: cell-based; conditions: Streptococcus pneumoniae
Description: (§3) Antibacterial activity of compounds was determined by a standard broth microdilution method (Clinical Laboratory Standard Institute CLSI, [2009]), except that for Streptococcus strains lysed blood was substituted with 5% horse serum in the testing medium. […] The activities are expressed as minimum inhibitory concentrations (MICs) in units of μg·ml^−1. […] The organisms tested represented macrolide sensitive Gram‐positive pathogens that are mainly targeted by macrolide antibiotics. Tested streptococci were clinical isolates Streptococcus pneumoniae SP030 and Streptococcus pyogenes 3565 from internal strain collection, and other strains were obtained from ATCC bioresource centre, Staphylococcus aureus ATCC13709, Haemophilus influenzae ATCC49247, and Moraxella catarrhalis ATCC23246. Double dilutions of tested compounds were prepared using TECAN Genesis 150. Bacteria were grown on appropriate agar plates (Becton Dickinson, USA)—Columbia agar with 5% sheep blood for streptococci and M. catarrhalis, Mueller‐Hinton chocolate agar for H. influenzae , and Mueller‐Hinton agar for staphylococci.

[5] = tested on: S. pyogenes 3565; test: Antibacterial screen, broth microdilution; assay type: cell-based; conditions: Streptococcus pyogenes
Description: as §3

[6] = tested on: S. aureus ATCC13709; test: Antibacterial screen, broth microdilution; assay type: cell-based; conditions: Staphylococcus aureus
Description: as §3

[7] = tested on: H. influenzae ATCC49247; test: Antibacterial screen, broth microdilution; assay type: cell-based; conditions: Haemophilus influenzae
Description: as §3

[8] = tested on: Plasmodium falciparum FCR3 (CQ,AT); test: [3H]hypoxanthine incorporation antimalarial assay, strain FCR3; assay type: cell-based; conditions: FCR3, 72 h, read-out: IC50 FCR3 (CQ,AT)
Description: as §1, §2

[9] = tested on: Plasmodium falciparum Dd2(AZ^R); test: [3H]hypoxanthine incorporation antimalarial assay, azithromycin-resistant mutant Dd2(AZ^R); assay type: cell-based
Description: as §1, §2

[10] = tested on: Plasmodium falciparum K1 (CQ,PY); test: [3H]hypoxanthine incorporation antimalarial assay, strain K1; assay type: cell-based
Description: as §1, §2

[11] = tested on: Plasmodium falciparum 3D7A (sensitive); test: [3H]hypoxanthine incorporation antimalarial assay, strain 3D7A; assay type: cell-based; conditions: 72 h of incubation, N = 3
Description: as §1, §2

[12] = DD2, 48 h, read-out: IC50 Dd2 48 h
[13] = DD2, 72 h, read-out: IC50 Dd2 (CQ,Q,PY,S)
[14] = DD2, 96 h, read-out: IC50 Dd2 96 h
[15] = DD2, 48 h, read-out: IC50 Dd2(AZ^R) 48 h
[16] = DD2, 96 h, read-out: IC50 Dd2(AZ^R) 96 h
[17] = K1, 72 h, read-out: IC50 K1 (CQ,PY)

SMILES	Delayed death phenotype [1]	IC50 [1, 12] [nM]	IC50 [1, 13] [nM]	IC50 [1, 14] [nM]	Cmax ([2]; infected (I) humanized mice) [ng/mL]	Cmax ([2]; uninfected (U) humanized mice) [ng/mL]	Tmax ([2]; infected (I) humanized mice) [h]	Tmax ([2]; uninfected (U) humanized mice) [h]	I/U (DNAUC infected versus uninfected) [2]	DNAUC(0–24) ([2]; infected (I) humanized mice)	DNAUC(0–24) ([2]; uninfected (U) humanized mice)	IC50 [3] [nM]	MIC [4] [µg/mL]	MIC [5] [µg/mL]	MIC [6] [µg/mL]	MIC [7] [µg/mL]	IC50 [8] [nM]	IC50 [9, 15] [nM]	IC50 [9, 16] [nM]	IC50 [11] [nM]	other results
CC[C@H]1OC(=O)[C@H](C)[C@@H](O[C@H]2C[C@@](C)(OC)[C@@H](O)[C@H](C)O2)[C@H](C)[C@@H](O[C@@H]2O[C@H](C)C[C@H](N(C)C)[C@H]2O)[C@](C)(O)C[C@@H](C)CN(C)[C@H](C)[C@@H](O)[C@]1(C)O [Azithromycin, reference compound]	Yes	3270	1590	81	344	243	1	1.67	1.1	161 (7) ng*h·ml^−1·mg^−1·kg^−1	146 (37) ng*h·ml^−1·mg^−1·kg^−1	> 50000	≤ 0.125	≤ 0.125	1 (≈ 1.34 µM)	2 (≈ 2.67 µM)	2590	3360	1480		IC50 ([10]; K1, 72 h of incubation, N = 3, read-out: IC50 K1 (CQ,PY)): 2720 nM
CC[C@H]1OC(=O)[C@H](C)[C@@H](O[C@H]2C[C@@](C)(OC)[C@@H](O)[C@H](C)O2)[C@H](C)[C@@H](O[C@@H]2O[C@H](C)C[C@H](N(C)C)[C@H]2O)[C@](C)(O)C[C@@H](C)CN(CCCNc2ccnc3cc(Cl)ccc23)[C@H](C)[C@@H](O)[C@]1(C)O [Compound 1]	No	17	25	12	775	173	1	0.75	2.1	362 (68) ng*h·ml^−1·mg^−1·kg^−1	169 (33) ng*h·ml^−1·mg^−1·kg^−1	2500 to 4000	≤ 0.125	≤ 0.125	1 (≈ 1.05 µM)	16 (≈ 16.8 µM)	22	21	11	20	IC50 [10, 17]: 23 nM
CC[C@H]1OC(=O)[C@H](C)[C@@H](O)[C@H](C)[C@@H](O[C@@H]2O[C@H](C)C[C@H](N(C)C)[C@H]2OCCCNc2ccnc3ccccc23)[C@](C)(O)C[C@@H](C)CN[C@H](C)[C@@H](O)[C@]1(C)O [Compound 3]	No	24	30	22	348	83.8	1.67	2.2	3.9	354 (129) ng*h·ml^−1·mg^−1·kg^−1	91 (85) ng*h·ml^−1·mg^−1·kg^−1	5000 to 6200	> 64	> 64	> 64	> 64	22	27	23	20	IC50 [10, 17]: 24 nM
